Results published in ChEMBL document CHEMBL1132579, “Self-organizing molecular field analysis: a tool for structure-activity studies” (J Med Chem, 1999).

Target: T1, Corticosteroid-binding globulin (Homo sapiens) (UniProt P08185)
T1 sequence (whole entry): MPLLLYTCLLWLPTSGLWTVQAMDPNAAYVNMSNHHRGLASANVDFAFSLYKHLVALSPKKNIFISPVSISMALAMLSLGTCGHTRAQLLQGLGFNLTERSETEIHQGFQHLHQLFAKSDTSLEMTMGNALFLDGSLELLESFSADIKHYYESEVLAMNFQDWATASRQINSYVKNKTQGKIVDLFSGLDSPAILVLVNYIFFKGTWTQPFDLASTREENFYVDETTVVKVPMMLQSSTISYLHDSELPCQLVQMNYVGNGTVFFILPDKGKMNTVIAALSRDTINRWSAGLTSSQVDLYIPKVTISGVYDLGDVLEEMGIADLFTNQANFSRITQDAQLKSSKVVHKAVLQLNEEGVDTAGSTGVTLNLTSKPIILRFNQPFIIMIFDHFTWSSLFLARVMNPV
Assay: Compound was evaluated for its binding affinity towards the human corticosteroid binding globulin

Structure (SMILES)	Log [k]
C[C@]12CC[C@H]3[C@@H](CCC4=CC(=O)CC[C@@H]43)[C@@H]1CC[C@@H]2O	-6.14
CC(=O)[C@H]1CCC2C3CCC4=CC(=O)CCC4C3CC[C@@]21C (some centres undefined)	-6.82
CC(=O)[C@H]1[C@H](C)C[C@H]2[C@@H]3CCC4=CC(=O)CC[C@]4(C)[C@H]3CC[C@@]21C	-7.12
CC(=O)OCC(=O)[C@@]1(O)CCC2C3CCC4=CC(=O)CC[C@]4(C)C3[C@@H](O)C[C@@]21C (some centres undefined)	-7.55
C[C@@H]1C[C@@]2(C)C(=CC1=O)CC[C@H]1[C@@H]3CC[C@](O)(C(=O)CO)[C@@]3(C)C[C@H](O)[C@@]12F	-5.8
CC(=O)[C@H]1CC[C@H]2[C@@H]3CCC4=CC(=O)CC[C@]4(C)[C@H]3C(=O)C[C@]12C	-6.78
C[C@]12C[C@@H](O)[C@H]3[C@@H](CCC4=CC(=O)CC[C@@]43C)[C@@H]1CC[C@@H]2C(=O)CO	-7.2
CC(=O)[C@@]1(O)[C@H](O)C[C@H]2[C@@H]3CCC4=CC(=O)CC[C@]4(C)[C@H]3CC[C@@]21C	-6.25
C[C@]12C=CC(=O)C=C1CC[C@@H]1[C@@H]2[C@@H](O)C[C@@]2(C)[C@H]1CC[C@]2(O)C(=O)CO	-7.51
